In patent publication US11779551B1 (priority 2022, dated 2023):

Tests used:
[1] = system: human lymphoblast cells; type: cell-based
[2] = system: human lymphoblast cells

Compound | effect on redox state of the proteome [1] | effect on cytotoxicity of PbTx-2 (LDH activity) [2] | reduction of PbTx-2 cytotoxicity [2]
O=S(=O)(O)CCS [MESNA, sodium mercaptoethyl sulfonate] | restored to control levels | significantly reduced cytotoxicity | approximately 50%
NCCS [cysteamine] |  | significantly reduced cytotoxicity | 
